Literature values as cited in patent US6670388B1, “Fatty acid synthase inhibitors” (SmithKline Beecham Corporation, priority 2000, dated 2003).

Legend:
bacteria = conditions: in vivo and in vitro
[1] = system: all three condensing enzymes

Which “inhibition of mammalian FASs” value (mammalian FASs) does the source give for `C=C/C(C)=C/[C@@]1(C)SC(=O)C(C)=C1O` [thiolactomycin] here?
The value was “does not inhibit mammalian FASs”.

And the antibacterial activity (bacteria)?
The antibacterial activity was “broad-spectrum antibacterial activity both in vivo and in vitro”.

What about the “inhibition of condensing enzymes” value [1] of the same compound?
The value was “specifically inhibit all three condensing enzymes”.

With `C/C=C/C/C=C/CCC(=O)[C@H]1O[C@H]1C(N)=O` [cerulenin] as the compound, how does the antibacterial activity (bacteria) read?
Its antibacterial activity is “bactericidal”.

What about the “inhibition of FabB & F” value (FabB & F) of the same compound?
The value was “potent inhibitor of FabB & F”.
